Experimental data as given in ChEMBL document CHEMBL1201862, “PubChem BioAssay data set” (2004).
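Grown in 96-well plates, cells were treated for 48 hours with each compound at five concentrations. Insufficient inhibition: endpoint recorded as highest concentration tested. GI50 is the concentration that inhibits growth by half.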 Active and inactive are the calls of the source. Rule as the data show it: active = GI50 up to about 1.1 µM and inactive = higher.

Columns and labels:
Experiment in all cases: NCI tumour cell line growth inhibition, 48 h
Malme-3M = system: Malme-3M
HCT-116 = system: HCT-116
HT-29 = system: HT-29
SW-620 = system: SW-620
CCRF-CEM = system: CCRF-CEM
UACC-257 = system: UACC-257
HCC 2998 = system: HCC 2998
HCT-15 = system: HCT-15
UO-31 = system: UO-31
SF-268 = system: SF-268
EKVX = system: EKVX
HOP-62 = system: HOP-62
LOX IMVI = system: LOX IMVI
UACC-62 = system: UACC-62
NCI/ADR-RES = system: NCI/ADR-RES
OVCAR-5 = system: OVCAR-5
M14 = system: M14
A549 = system: A549
RXF 393 = system: RXF 393

SMILES	GI50 (Malme-3M)	GI50 (HCT-116)	GI50 (HT-29)	GI50 (SW-620)	GI50 (CCRF-CEM)	GI50 (UACC-257)	GI50 (HCC 2998)	GI50 (HCT-15) [µM]	GI50 (UO-31)	GI50 (SF-268)	GI50 (EKVX)	GI50 (HOP-62)	GI50 (LOX IMVI)	GI50 (UACC-62)	GI50 (NCI/ADR-RES)	GI50 (OVCAR-5)	GI50 (M14)	GI50 (A549)	GI50 (RXF 393)
O=c1oc2ccccc2c(O)c1C1c2c(c3ccccc3oc2=O)Oc2c1c(=O)oc1ccccc21	> 100 µM (inactive)	36.6 µM (inactive)	30.2 µM (inactive)	38.2 µM (inactive)	36.5 µM (inactive)	34.8 µM (inactive)	18.7 µM (inactive)	27.9	19 µM (inactive)	29.4 µM (inactive)	45 µM (inactive)	64.4 µM (inactive)	38.5 µM (inactive)	21.4 µM (inactive)	60.7 µM (inactive)	–	–	–	–
O=c1nc(-c2ccccc2)c2c3c(cccn13)CCC2	> 100 µM (inactive)	> 100 µM (inactive)	> 100 µM (inactive)	> 100 µM (inactive)	> 100 µM (inactive)	> 100 µM (inactive)	> 100 µM (inactive)	> 100	73.6 µM (inactive)	> 100 µM (inactive)	–	> 100 µM (inactive)	> 100 µM (inactive)	> 100 µM (inactive)	–	> 100 µM (inactive)	> 100 µM (inactive)	> 100 µM (inactive)	> 100 µM (inactive)
O=C1C=CC(=O)[C@H]2C3C=CC(C4C3C3(Cl)C(Cl)=C(Cl)[C@]4(Cl)C3(Cl)Cl)[C@@H]12 (stereo not given in full)	10.6 µM (inactive)	3.61 µM (inactive)	3.66 µM (inactive)	9.57 µM (inactive)	2.95 µM (inactive)	2.32 µM (inactive)	–	4.11	10.3 µM (inactive)	5.71 µM (inactive)	4.02 µM (inactive)	17.1 µM (inactive)	3.32 µM (inactive)	8.83 µM (inactive)	5.83 µM (inactive)	7.46 µM (inactive)	4.3 µM (inactive)	4.03 µM (inactive)	4.17 µM (inactive)
Cc1cn([C@H]2C[C@@H]3[C@@H](COC(CCl)N3O)O2)c(=O)[nH]c1=O (stereo not given in full)	41.3 µM (inactive)	> 100 µM (inactive)	> 100 µM (inactive)	> 100 µM (inactive)	> 100 µM (inactive)	> 100 µM (inactive)	–	> 100	> 100 µM (inactive)	> 100 µM (inactive)	> 100 µM (inactive)	> 100 µM (inactive)	> 100 µM (inactive)	> 100 µM (inactive)	> 100 µM (inactive)	> 100 µM (inactive)	> 100 µM (inactive)	> 100 µM (inactive)	> 100 µM (inactive)
Cc1cccc(/C=N/N=C(\N)NO)n1	> 100 µM (inactive)	> 100 µM (inactive)	48.4 µM (inactive)	74.5 µM (inactive)	42.5 µM (inactive)	> 100 µM (inactive)	83.8 µM (inactive)	> 10	–	16.1 µM (inactive)	37.3 µM (inactive)	17.1 µM (inactive)	5.73 µM (inactive)	2.12 µM (inactive)	–	–	41.5 µM (inactive)	13.4 µM (inactive)	> 100 µM (inactive)
CCOCCOC(=O)C1CCC(=O)N1CN(C(C)=O)c1cc(OC)ccc1OC (stereo not given)	> 100 µM (inactive)	> 100 µM (inactive)	> 100 µM (inactive)	> 100 µM (inactive)	–	> 100 µM (inactive)	–	> 100	> 100 µM (inactive)	> 100 µM (inactive)	> 100 µM (inactive)	> 100 µM (inactive)	> 100 µM (inactive)	> 100 µM (inactive)	> 100 µM (inactive)	> 100 µM (inactive)	> 100 µM (inactive)	> 100 µM (inactive)	> 100 µM (inactive)
Oc1ccc2c(c1)-c1c(c3ccccc3n1CCN1CCOCC1)CC2	31.3 µM (inactive)	31.4 µM (inactive)	39.6 µM (inactive)	> 10 µM (inactive)	> 100 µM (inactive)	27.9 µM (inactive)	–	39.7	33.9 µM (inactive)	59.4 µM (inactive)	53.2 µM (inactive)	47 µM (inactive)	39.7 µM (inactive)	27.5 µM (inactive)	32.7 µM (inactive)	23.9 µM (inactive)	27.2 µM (inactive)	–	66.7 µM (inactive)
O=c1[nH]c(N/N=C\C(=N/Nc2nc3ccccc3c(=O)[nH]2)C(O)C(O)C(O)CO)nc2ccccc12 (stereo not given)	–	> 100 µM (inactive)	> 100 µM (inactive)	> 100 µM (inactive)	> 100 µM (inactive)	> 100 µM (inactive)	–	> 100	> 100 µM (inactive)	> 100 µM (inactive)	> 100 µM (inactive)	> 100 µM (inactive)	> 100 µM (inactive)	> 100 µM (inactive)	> 100 µM (inactive)	> 100 µM (inactive)	> 100 µM (inactive)	> 100 µM (inactive)	–
CC1=NNC(=O)C1C1CC(c2c[nH]c3ccccc23)=NNC1=O (stereo not given)	> 100 µM (inactive)	> 100 µM (inactive)	> 100 µM (inactive)	> 100 µM (inactive)	> 100 µM (inactive)	> 100 µM (inactive)	–	> 100	> 100 µM (inactive)	> 100 µM (inactive)	11.9 µM (inactive)	> 100 µM (inactive)	–	> 100 µM (inactive)	> 100 µM (inactive)	> 100 µM (inactive)	> 100 µM (inactive)	> 100 µM (inactive)	> 100 µM (inactive)
CC(=O)O[C@@H]1C[C@@]2(C)[C@@H]3CC=C4[C@@H](C[C@H](O)C(=O)C4(C)C)[C@]3(C)C(=O)C[C@]2(C)[C@H]1[C@@](C)(O)C(=O)/C=C/C(C)(C)OC(C)=O	–	1.63 µM (inactive)	1.08 µM (active)	0.516 µM (active)	1.61 µM (inactive)	0.594 µM (active)	0.035 µM (active)	0.875	0.298 µM (active)	1.01 µM (active)	2.72 µM (inactive)	0.731 µM (active)	2.74 µM (inactive)	2.63 µM (inactive)	3.64 µM (inactive)	12.8 µM (inactive)	0.592 µM (active)	0.881 µM (active)	–
CC1=NN(C(=O)c2ccc([N+](=O)[O-])cc2)C(=O)C1/N=N/c1ccccc1C(=O)O (stereo not given)	> 100 µM (inactive)	> 100 µM (inactive)	> 100 µM (inactive)	> 100 µM (inactive)	75 µM (inactive)	> 100 µM (inactive)	> 100 µM (inactive)	–	> 100 µM (inactive)	> 100 µM (inactive)	> 100 µM (inactive)	–	–	45 µM (inactive)	–	> 100 µM (inactive)	–	> 100 µM (inactive)	> 100 µM (inactive)
CC1C2(C)OC(=N)C(C#N)(C(c3cccc([N+](=O)[O-])c3)O2)C1(C#N)C#N (stereo not given)	26.2 µM (inactive)	18.5 µM (inactive)	26.4 µM (inactive)	12.7 µM (inactive)	15.6 µM (inactive)	19.6 µM (inactive)	–	–	35.6 µM (inactive)	33 µM (inactive)	27.9 µM (inactive)	–	16.9 µM (inactive)	17.9 µM (inactive)	64.9 µM (inactive)	34.7 µM (inactive)	19.1 µM (inactive)	> 100 µM (inactive)	21.4 µM (inactive)
COc1cc(C2C3C=CC=C4CC=CC(=C43)C3CCC(=O)N32)cc(OC)c1OC (stereo not given)	–	94.8 µM (inactive)	61.5 µM (inactive)	> 100 µM (inactive)	–	> 100 µM (inactive)	–	> 100	48.9 µM (inactive)	> 100 µM (inactive)	> 100 µM (inactive)	> 100 µM (inactive)	> 100 µM (inactive)	30.8 µM (inactive)	13.8 µM (inactive)	> 100 µM (inactive)	> 100 µM (inactive)	99.1 µM (inactive)	–
O=C1CC(c2ccccc2)n2c(nc3ccccc32)N1 (stereo not given)	38.1 µM (inactive)	> 100 µM (inactive)	> 100 µM (inactive)	51.9 µM (inactive)	> 10 µM (inactive)	41.9 µM (inactive)	–	46.8	> 100 µM (inactive)	> 100 µM (inactive)	73.5 µM (inactive)	> 100 µM (inactive)	39.4 µM (inactive)	72.9 µM (inactive)	> 100 µM (inactive)	> 100 µM (inactive)	> 100 µM (inactive)	> 100 µM (inactive)	21 µM (inactive)
O=C(CSCC(=O)N/N=C\c1ccc(-c2ccccc2)cc1)N/N=C\c1ccc(-c2ccccc2)cc1	27.2 µM (inactive)	9.27 µM (inactive)	23 µM (inactive)	16.3 µM (inactive)	–	35.7 µM (inactive)	–	26.1	28.5 µM (inactive)	15.8 µM (inactive)	45.2 µM (inactive)	23 µM (inactive)	16.3 µM (inactive)	22.9 µM (inactive)	56.4 µM (inactive)	29.6 µM (inactive)	23.8 µM (inactive)	25.8 µM (inactive)	50.5 µM (inactive)
O=C1N/N=C\c2ccc(cc2)OCc2cccc(n2)COc2ccc(cc2)/C=N\NC1=O	> 25 µM (inactive)	> 25 µM (inactive)	> 25 µM (inactive)	> 25 µM (inactive)	> 25 µM (inactive)	> 25 µM (inactive)	–	> 25	> 25 µM (inactive)	> 25 µM (inactive)	> 25 µM (inactive)	> 25 µM (inactive)	–	> 25 µM (inactive)	> 25 µM (inactive)	> 25 µM (inactive)	> 25 µM (inactive)	> 25 µM (inactive)	> 25 µM (inactive)
